Measured values taken from paper PMC6681416, “Novel Derivatives of Deoxycholic Acid Bearing Linear Aliphatic Diamine and Aminoalcohol Moieties and their Cyclic Analogs at the C3 Position: Synthesis and Evaluation of Their In Vitro Antitumor Potential” (Molecules, 2019).

What was measured:
HuTu-80 cells = experiment: Cell cycle assay (PI, flow cytometry); type: cell-based, human; conditions: 8 µM
Protocol: To determine the effect of compound 9 on the cell cycle, HuTu-80 cells were seeded in 6-well plates at a density of 5 × 10^5 cells/well for 24 h. After incubation, cells were treated with compound 9 at 8 µM for 6, 18 or 24 h. Thereafter, cells were collected by trypsinization, washed with cold PBS and fixed in 70% ice-cold ethanol for 30 min at 4 °C. Fixed cells were pelleted, stained with PI (1 mg/mL) for 15 min at 37 °C in the dark and analyzed using NovoCyte Flow Cytometer (ACEA Biosciences Inc.). Ten thousand events were recorded for each sample.

[1] = system: non-transformed human fibroblasts hFF3; experiment: MTT cytotoxicity assay, hFF3; type: cell-based; conditions: HFF-3, 24 h, read-out: IC50 hFF3 (fibroblast)
Text: (§1) According to our previous data and data published by other research groups, chemical transformations of bile acids can greatly improve their antitumor potential. Thus, as the first step of evaluation of the biological activities of our novel DCA derivatives we assessed their effects on tumor cell viability. The cytotoxicity of the compounds was investigated with respect to a panel of cultured cell lines, including human duodenal HuTu-80, hepatocellular HepG2, cervical KB-3-1 and lung A549 carcinomas as well as murine macrophage RAW264.7 and non-transformed human fibroblasts hFF3 by MTT assay.
Human duodenal carcinoma HuTu-80 cells, human hepatocellular carcinoma HepG2 cells, human cervical carcinoma KB-3-1 cells, human lung carcinoma A549 cells were obtained from the Russian Cell Culture Collection (Institute of Cytology, RAS, St. Petersburg, Russia). Non-transformed human fibroblasts hFF3 were kindly provided by Dr. Olga Koval (Institute of Chemical Biology and Fundamental Medicine, SB RAS, Novosibirsk, Russia). RAW264.7 macrophages were kindly provided by Prof. Dr. Dmitry Kuprash (Engelhardt Institute of Molecular Biology, RAS, Moscow, Russia). The cells were cultured in DMEM (Sigma-Aldrich Inc., St. Louis, MO, USA) supplemented with 10% (v/v) heat-inactivated fetal bovine serum (FBS) (BioloT, St. Petersburg, Russia), 100 U/mL penicillin (ICN Biomedicals Inc., Costa Mesa, CA, USA), 100 µg/mL streptomycin and 0.25 µg/mL amphotericin; additionally, in the case of RAW264.7 cells, concentration of glucose in the medium was increased up to 4.5 mg/mL. The cells were incubated at 37 °C in 5% CO2 and 95% air (hereafter referred to as standard conditions). […]
Cells were seeded in triplicate in 96-well plates at a density of 5 × 10^3 (HuTu-80, HepG2, KB-3-1, hFF3), 10^4 (A549) or 5 × 10^4 (RAW264.7) cells per well. […] The crystals of formazan forming within live cells were solubilized with DMSO and the absorbance was measured in a Multiscan RC plate reader (Thermo LabSystems, Helsinki, Finland) at a test and reference wavelengths of 570 nm and 620 nm, respectively. […]

KB-3-1 cells = experiment: MTT cytotoxicity assay, KB-3-1; type: cell-based, human
Text: as §1
Human duodenal carcinoma HuTu-80 cells, human hepatocellular carcinoma HepG2 cells, human cervical carcinoma KB-3-1 cells, human lung carcinoma A549 cells were obtained from the Russian Cell Culture Collection (Institute of Cytology, RAS, St. Petersburg, Russia). Non-transformed human fibroblasts hFF3 were kindly provided by Dr. Olga Koval (Institute of Chemical Biology and Fundamental Medicine, SB RAS, Novosibirsk, Russia). RAW264.7 macrophages were kindly provided by Prof. Dr. Dmitry Kuprash (Engelhardt Institute of Molecular Biology, RAS, Moscow, Russia). The cells were cultured in DMEM (Sigma-Aldrich Inc., St. Louis, MO, USA) supplemented with 10% (v/v) heat-inactivated fetal bovine serum (FBS) (BioloT, St. Petersburg, Russia), 100 U/mL penicillin (ICN Biomedicals Inc., Costa Mesa, CA, USA), 100 µg/mL streptomycin and 0.25 µg/mL amphotericin; additionally, in the case of RAW264.7 cells, concentration of glucose in the medium was increased up to 4.5 mg/mL. The cells were incubated at 37 °C in 5% CO2 and 95% air (hereafter referred to as standard conditions). DCA derivatives were dissolved in DMSO to yield stock solutions of 10 mmol/L and stored at −20 °C prior to use.
Cells were seeded in triplicate in 96-well plates at a density of 5 × 10^3 (HuTu-80, HepG2, KB-3-1, hFF3), 10^4 (A549) or 5 × 10^4 (RAW264.7) cells per well. Cells were incubated under standard conditions for 24 h and then they were treated with varying doses of investigated derivatives for subsequent 24 h. Then 10 µL of MTT solution (5 mg/mL) were added to each wells and cells were incubated for an additional 2 h under standard conditions. The crystals of formazan forming within live cells were solubilized with DMSO and the absorbance was measured in a Multiscan RC plate reader (Thermo LabSystems, Helsinki, Finland) at a test and reference wavelengths of 570 nm and 620 nm, respectively. […] To perform SAR analysis, hierarchical clustering of compounds based on their IC50 values was fulfilled with Euclidean distance by using the Morpheus tool (https://software.broadinstitute.org/morpheus/), a platform designed for visualization and analysis of data in a matrix format. Heatmap, containing compounds’ SI values, were constructed by using the Excel 2010 software (Microsoft, Redmond, WA, USA). In order to reveal whether ROS participate in the induction of cell death by compound 9, HuTu-80 cells cultured in 96-well plate were pretreated by NAC at 2 mM for 1 h. Thereafter, the medium was replaced by fresh medium with compound 9 at 8 µM and the cells were incubated with subsequent 24 h under standard conditions. After this time period, the curves of cytotoxicity of compound 9 in the presence or absence of NAC were compared.

For `COC(=O)CC[C@@H](C)[C@H]1CC[C@H]2[C@@H]3CC[C@@H]4CC(O)(CNCCCO)CC[C@]4(C)[C@H]3CC(=O)[C@]12C` (stereo partly drawn) [Compound 9, Methyl 3-hydroxy-3-((3-hydroxypropylamino)methyl)-12-oxo-5β-cholan-24-oate], the subG1 cell population (HuTu-80 cells; 6 h) was 7.4%, the subG1 cell population (HuTu-80 cells; 18 h) was 30.0% and the subG1 cell population (HuTu-80 cells; 24 h) was 41.1%. For the same compound, the IC50 [1] was 33.3 ± 1.2 µM, the IC50 (KB-3-1 cells; Homo sapiens, KB 3-1, MTT, 24 h, read-out: IC50 KB3-1 (cervix)) was 22.8 ± 1.8 µM and the “Selectivity index KB-3-1” value (KB-3-1 cells; ratio IC50 hFF3 / IC50 KB-3-1) was 1.4.
